This is an account of results in patent publication US20260001828A1, “BIOBASED SURFACTANT AND ANTIOXIDANT” (BLOOM BIORENEWABLES SA, priority 2022, published 2026).

Data set [1] in a line: Surface tension by pendant drop method, water/air interface. In kind it is physicochemical. On the procedure: Surface tension measurements were performed using the pendant drop method by Kruss EasyDrop Standard drop shape analysis system. […]
Data set [2] can be described thus: DPPH free radical antioxidant activity test (UV/visible spectrophotometry, 517 nm). The class given is biochemical. On the procedure: The antioxidant activity is assessed by measuring the capacity of the compound to react with a free radical (here 2,2-diphenyl-1-picrylhydrazyl also known as DPPH). […] Butylated hydroxytoluene (BHT) and vitamin E were used as […] substances (positive control) and glycerol as negative control (see FIGS. 3 and 4).
(DPPH is a stable violet radical that fades when it is reduced.)

In the case of `CCCc1cc(OC)c([O-])c(OC)c1.[Na+]` [PSNa, 4-propylsyringol sodium salt], the Water/air interface (surface tension) in data set [1] (concentration 0.10 wt %) is 45.1 mN/m; in data set [1] (concentration 0.50 wt %) it was 39.8 mN/m; in data set [1] (concentration 1.00 wt %), 33.8 mN/m.

On to `Cc1cc(C(C)(C)C)c(O)c(C(C)(C)C)c1` [BHT, Butylated hydroxytoluene], for which the figures for the inhibition rate in data set [2] (concentration of 5 μg/mL), in data set [2] (concentration of 10 μg/mL) and in data set [2] (concentration of 50 μg/mL) were 32%, 54% and 85%, respectively.

With `CCCc1cc(OC)c(O)c(OC)c1` [4-propylsyringol], the Water/air interface (surface tension) in data set [1] (concentration 0.10 wt %) was found to be 48.3 mN/m; in data set [1] (concentration 0.50 wt %), 34.9 mN/m; in data set [1] (concentration 1.00 wt %) it was 32.3 mN/m. Further, the results for the inhibition rate in data set [2] (concentration of 5 μg/mL), in data set [2] (concentration of 10 μg/mL) and in data set [2] (concentration of 50 μg/mL) were 65%, 84% and 85%, respectively.

Molecule “Sodium linear alkylbenzenesulfonate [NaLAS]” gave a Water/air interface (surface tension) in data set [1] (concentration 0.10 wt %) of 33 mN/m.

The molecule `CCCCCCCCCCCCOS(=O)(=O)[O-].[Na+]` [SLS, sodium lauryl sulfate] returned a Water/air interface (surface tension) in data set [1] (concentration 0.20 wt %) of 35.4 mN/m.

nonylphenol ethoxylate [NPE]: in data set [1] (concentration 0.02 wt %), the Water/air interface (surface tension) was determined as 36 mN/m.

In the case of vitamin E, the inhibition rate in data set [2] (concentration of 5 μg/mL) is 28%; in data set [2] (concentration of 10 μg/mL) it was 61%; in data set [2] (concentration of 50 μg/mL) it was 84%.

In data set [1] (concentration 0.02 wt %), sodium lauryl ether sulfate [SLES] registered a Water/air interface (surface tension) of 33.8 mN/m.

Consider `CCCCC(CC)COC(=O)CC(C(=O)OCC(CC)CCCC)S(=O)(=O)[O-].[Na+]` (centres unmarked) [DOSS, Dioctyl Sodium Sulfosuccinate], for which the Water/air interface (surface tension) in data set [1] (concentration 0.20 wt %) was found to be 51 mN/m.
